The METLIN SMRT retention time set (Domingo-Almenara et al. 2019)

Assay: gradient 5% acetonitrile 3 min, to 50% in 2 min, to 85% in 15 min, held 3 min, 100 µL/min
Conditions: column: Zorbax Extend-C18 2.1 x 50 mm; eluents: water / acetonitrile, 0.1% formic acid
Outline: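 Over 3 months, pure standards in mixtures of ~100 molecules were run by HPLC coupled to a quadrupole time-of-flight mass spectrometer in positive and negative ionization mode. The column was a Zorbax Extend-C18 (2.1 × 50 mm, 1.8 μm) at 100 μL/min, eluted with water and acetonitrile each holding 0.1% formic acid, with 40 μL dead and 900 μL dwell volumes. Retention time was determined from adduct peaks chosen by software and checked manually.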

SMILES	RP-LC retention time
O=C(CSc1ccc(F)cc1)N1CCC(COCc2ccccc2)CC1	1030 s
O=C(NC1CCCCCC1)C1CCN(C(=O)c2ncn3c2COC(c2ccccc2)C3)CC1 (stereo not drawn)	794 s
COc1cccc(OC)c1CN1CC[C@@H]2CN(S(C)(=O)=O)[C@@H]2C1	594 s
COCC(C)NC(=O)C(=O)Nc1ccc2c(c1)OCCO2 (stereo not drawn)	685 s
COc1cc2nc(C(=O)N3CCC(C)CC3)cc(Nc3cccc(SC)c3)c2cc1OC	776 s
CCn1nc(C)n2cc(S(=O)(=O)NCc3ccco3)cc2c1=O	779 s
Fc1cccc(-c2noc(-c3cc(N4CCN(c5ccccn5)CC4)nc4ccccc34)n2)c1	962 s
CCNC(=O)N(CC(=O)N1CCc2sccc2C1COc1ccccc1)CC1CC1 (stereo not drawn)	857 s
CCCNc1nc(-c2ccc(Br)cc2)cs1	1000 s
COc1ccc2c(c1)C=C(C(=O)NCc1ccccc1OC)C=CO2	944 s
CCn1cc(-c2nc(C(=O)Nc3ccc(Cl)cc3F)cs2)c2cccnc21	1350 s
CCc1nnc(-c2ccc3ccn(CC(=O)Nc4cccc(C(C)=O)c4)c3c2)o1	788 s
CC(=O)c1ccc(NC(=O)c2cccc(N3C(=O)NC4CC3(C)Oc3ccccc34)c2)cc1 (stereo not drawn)	815 s
CCOC(=O)c1c(C)oc2nc(C)nc(NCc3ccc(CC)cc3)c12	1370 s
Cc1ccc(-c2noc(Cn3c(=O)n(Cc4ccccc4)c(=O)c4sccc43)n2)cc1C	1160 s
CC(=O)Nc1ccc(NC(=O)C2CC(=O)N(c3n[nH]c4cccc(F)c34)C2)cc1 (stereo not drawn)	634 s
O=C(Nc1cccc2cccnc12)C1COCC(=O)N1Cc1ccccc1 (stereo not drawn)	777 s
Cc1ccc2oc(N3CCCN(C(=O)c4ccc(-c5noc(C6CC6)n5)cc4)CC3)nc2n1	648 s
CCN1C(=O)c2ccccc2Oc2ccc(C(=O)NCc3cc(OC)ccc3OC)cc21	932 s
O=S(=O)(c1c(Cl)cccc1Cl)N1CCN(Cc2ccc3c(c2)OCO3)CC1	595 s
O=C1CC(c2noc(-c3ccc(F)cc3)n2)CN1c1ccc(Cl)cc1 (stereo not drawn)	1070 s
C=CCN1C(=O)C(C(=O)N2CCOCC2)C2CC1(C)Oc1ccccc12 (stereo not drawn)	718 s

SMILES	RP-LC retention time
O=C(c1cc(F)ccc1F)N1CCN(C(=O)c2nnn3c2COC(c2ccc(Cl)cc2)C3)CC1 (stereo not drawn)	937 s
O=C(O)c1ccccc1-c1c2ccc(=O)c(O)c-2oc2c(O)c(O)ccc12	702 s
O=C(Nc1ncc(-c2ccccc2)s1)c1ccccc1Br	936 s
CS(=O)(=O)N(Cc1ccncc1)C1CN(C(=O)C2(c3ccccc3)CC2)C1	610 s
COCCOC1CCOC2(CCN(S(=O)(=O)c3cccc(OC)c3)CC2)C1 (stereo not drawn)	818 s
CCCOc1ccc(C(=O)Nc2nnc(C3CC(=O)N(c4ccc(Cl)cc4)C3)o2)cc1 (stereo not drawn)	909 s
CN(CC(=O)Nc1ccc(F)c(F)c1F)c1nc2c(Cl)cccc2s1	1000 s
Cc1cc(C)cc(C(=O)Nc2cc(-c3ccccn3)no2)c1	911 s
Cc1cc(C(=O)NCc2ccsc2)no1	700 s
COC(=O)c1ccc(-c2nc3cnccn3c2Nc2cccc(C(=O)OC)c2)cc1	822 s
CCOc1ccc(OCC)c(NC(=O)C2CCN(C(=O)C3Sc4ccccc4NC3=O)CC2)c1 (stereo not drawn)	882 s
CCC(C)NC(=O)c1sc(-c2cn(C(C)C)c3ncccc23)nc1C (stereo not drawn)	931 s
COc1ccc(-c2cccc(NC(C)=O)c2)nn1	645 s
CC(C)Oc1ccc(C(=O)N(Cc2ccc(Br)o2)C2CCS(=O)(=O)C2)cc1 (stereo not drawn)	963 s
CCCNC(=O)C1CCCN(c2ccc(SCC(=O)Nc3cccc(F)c3)nn2)C1 (stereo not drawn)	670 s
Nc1cc(C2CCN(C(=O)Nc3cc(F)c(F)c(F)c3)CC2)no1	765 s
COc1ccc(-n2ccn(CC(=O)Nc3ccc(OC)c(Cl)c3)c2=O)cc1	734 s
Cc1ccc(-c2cc(N3CCN(C(=O)c4ccc(C)c(C)c4)CC3)ncn2)cc1	736 s
COc1ccccc1NC(=O)NCC(c1cccnc1)c1c[nH]c2ccccc12 (stereo not drawn)	657 s
CCNC(=O)c1cn(-c2ccc(SCC(=O)Nc3ccc(Cl)cc3F)nn2)cn1	702 s
CCOC(=O)c1[nH]c(C)c(CCC(=O)N2CCCC(C(=O)NCc3cc(OC)ccc3OC)C2)c1C (stereo not drawn)	799 s
COC[C@@H]1CN(C(=O)c2ccoc2C)C[C@H]1c1nc(C)no1	539 s

SMILES	RP-LC retention time
CN(C)c1ncccc1NC(=O)c1cccc(C#N)c1	585 s
Cc1noc(-c2ccnc(-n3cnc(C(=O)NC(C)c4ccccc4)c3)c2)n1 (stereo not drawn)	867 s
Cc1cnc(SCc2ccc(Cl)cc2Cl)[nH]c1=O	970 s
CCOC(=O)N1CCC2(CC1)OC(=O)C(C)=C2C(=O)Nc1cc(OC)cc(OC)c1	864 s
Cn1nc2n(c1=O)CCN(C(=O)c1cc(CN3CCOCC3)on1)CC2	534 s
CN1C(=O)c2[nH]nc(-c3ccc(F)cc3)c2C1c1cccc(O)c1 (stereo not drawn)	687 s
Cc1cc(F)ccc1N1C(=O)CN(S(C)(=O)=O)CC1(C)C(=O)NCc1ccc(F)cc1 (stereo not drawn)	814 s
CN(C)C(CNC(=O)c1cc(-c2cccs2)on1)c1ccc(F)cc1 (stereo not drawn)	668 s
Cc1ccc(NC(=O)N2CCC(CCNC(=O)C3(c4ccccc4)CC3)CC2)cc1	923 s
CCc1cccc(NC(=O)C2CCN(S(=O)(=O)c3ccc4c(c3)CC(C)N4C(C)=O)CC2)c1 (stereo not drawn)	942 s
CC1=C(C(=O)N2CCOCC2)C(c2ccc(Br)cc2)C2=C(CCCC2=O)N1 (stereo not drawn)	670 s
CN(C)CC(=O)N1CC(c2nc(-c3ccc(F)cc3)no2)C2(CCOCC2)C1 (stereo not drawn)	572 s
Cc1c(Cl)cccc1NS(=O)(=O)c1cc(-c2nc(C(C)(C)C)cs2)cs1	1340 s
COc1ccc(NC(=O)C2CCN(c3cnc4nc(C)c(C)nc4c3)CC2)cc1F	718 s
COc1ccccc1NC(=O)C(=O)c1ccc[nH]1	908 s
C#CCSc1nc2ccc([N+](=O)[O-])cc2s1	935 s
CC(=O)Nc1cccc(C2OC(c3ccc(Cl)cc3Cl)=NN2C(C)=O)c1 (stereo not drawn)	914 s
CCOc1cccc(-c2noc(Cn3nc(-c4ccc5c(c4)OCO5)ccc3=O)n2)c1	1130 s
Cc1cc2c(cc1NC(=O)C1CCC(C)CC1)n(C)c(=O)c(=O)n2C (stereo not drawn)	733 s
O=C(NCc1cc(-c2ccc3c(c2)OCCO3)on1)c1ccc2nsnc2c1	788 s
CCC(=O)NCc1nc2c(n1CC)CN(C(=O)c1ccc(Cl)cc1)CC2	529 s
O=c1c2ccccc2c(-c2nc(-c3ccncc3)no2)cn1-c1cccc(Cl)c1	1020 s

SMILES	RP-LC retention time
Cn1cc2c(n1)c(=O)n(Cc1ccccc1)c(=O)n2CC(=O)NCc1ccccc1	769 s
O=C(CCn1nnc2cc(-c3noc(COc4ccc(Cl)cc4)n3)ccc21)N1CCCC1	942 s
Cc1nnsc1C(=O)N1CCC(c2nnc(-c3ccco3)o2)CC1	617 s
O=C(Cn1c(=O)c(CCC(=O)NC2CCCC2)nc2ccccc21)Nc1ccc(F)c(F)c1	825 s
Cc1cc(C(=O)NCCCN2CCOCC2)c2cc(Br)ccc2n1	583 s
CC(C)[Si]1(C(C)C)OCC2OC(n3cnc4c(N)ncnc43)C(N)C2O[Si](C(C)C)(C(C)C)O1 (stereo not drawn)	828 s
O=C(Nc1cnc(N2CCCC2)nc1)c1ccccc1	676 s
CCN1C(=O)c2cc(S(=O)(=O)NCc3ccc(F)cc3)ccc2Oc2cccnc21	1060 s
CCOCCCNC(=O)N1[C@H]2CC[C@@H]1c1cnc(-c3ccccc3)nc1C2	778 s
Cc1ccccc1CNC(=O)Cn1cccc1-c1nnc(C2CCC2)o1	920 s
O=C(NCc1cc(F)ccc1F)c1ccc2ncnc(N3CCCC3)c2c1	650 s
Cc1cccc(-n2c(=O)c3c(cc(C)n3C)n(CC(=O)Nc3ccc(C)cc3C)c2=O)c1	912 s
CCOC(=O)c1[nH]c(C)c(CCC(=O)N2CCC(C(=O)NCc3ccc(OC)c(OC)c3)CC2)c1C	700 s
NC(=O)C1CCN(C(=O)CSc2nc3c(c(-c4ccccc4)n2)CCCC3)CC1	702 s
CC(C)c1ccc(C(=O)Nc2nc3ccccc3[nH]2)cc1	672 s
COc1ccc2c(c1)C1(CCN(S(=O)(=O)c3cc(F)ccc3C)C1)C(=O)N2 (stereo not drawn)	857 s
CCC(C(=O)Nc1cc(-c2cn3nc(OC)ccc3n2)ccc1F)c1ccccc1 (stereo not drawn)	916 s
CCc1nc(-c2csc(S(=O)(=O)N3CCC(C(=O)Nc4ccc(F)cc4)CC3)c2)no1	962 s
Cc1ccc(NC(=O)c2cccn2Cc2noc(C3CC3)n2)c(Cl)c1	1030 s
COCCc1nncn1C1CCN(S(=O)(=O)c2ccccc2C(F)(F)F)CC1	720 s
COc1ccc(C(=O)NC2CCN(c3cc(-c4ccc(Cl)cc4)[nH]n3)C2)cn1 (stereo not drawn)	732 s
CC1CC(=O)N(Cc2c(F)cccc2Cl)c2ccccc2N1 (stereo not drawn)	897 s
